Source: publication PMC2803762 (Molecules, 2008)

System: pig liver esterase (PLE; EC 3.1.1.1)
Experiment: release of p-nitroaniline at […] nm, saturation curve
Format: biochemical, Sus scrofa
Settings: PBS pH 7.7, 10% v/v DMSO, 25 °C, PLE 0.25 μg/mL, substrate 0.5-33 μM

Km: 14 µM
Compound: CC(=O)Oc1cc(C)cc(C)c1C(C)(C)CC(=O)Nc1ccc([N+](=O)[O-])cc1 [compound 1, prochromophore 1]
